Structures can show the parent of a compound that is named as a salt. Where two headings read alike, the source gives them in different places.
What was measured:
Assay type in all cases: biochemical
[1] = target: T1, recombinant human MAO-A (monoamine oxidase-A) (Homo sapiens, UniProt P21397); assay: Activity evaluation on recombinant human MAO-A (Amplex Red/HRP-coupled assay, 0.5 mM tyramine substrate); settings: read-out: Inhibitory Activity (IC50, nM) MAO-A
T1 construct: purchased Sigma-Aldrich
T1 sequence (P21397 1-527): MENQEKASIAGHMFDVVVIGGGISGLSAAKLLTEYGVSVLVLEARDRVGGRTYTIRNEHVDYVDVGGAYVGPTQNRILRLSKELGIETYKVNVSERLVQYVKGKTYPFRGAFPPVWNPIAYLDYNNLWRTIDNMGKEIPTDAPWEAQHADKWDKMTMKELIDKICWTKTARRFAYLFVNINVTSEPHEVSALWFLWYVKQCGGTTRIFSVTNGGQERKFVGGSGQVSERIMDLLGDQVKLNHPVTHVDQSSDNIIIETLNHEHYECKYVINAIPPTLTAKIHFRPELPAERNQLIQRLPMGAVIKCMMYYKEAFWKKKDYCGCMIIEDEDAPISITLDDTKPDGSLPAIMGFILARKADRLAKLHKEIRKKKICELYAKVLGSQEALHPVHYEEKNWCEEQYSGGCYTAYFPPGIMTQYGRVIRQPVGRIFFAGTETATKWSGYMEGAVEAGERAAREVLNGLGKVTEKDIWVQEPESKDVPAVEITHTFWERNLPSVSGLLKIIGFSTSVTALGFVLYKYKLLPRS
Outline: (§1)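 Using an HRP-coupled Amplex Red readout (544/590 nm, kinetic over 1–2 h), IC50 values were fitted by 4-parameter logistic model to percent decrease in signal rate against DMSO control. Compounds (1:3 dilutions, 8 points, <1% DMSO) sat 30 min at 37 °C with enzyme in pH 7.4 phosphate buffer before substrate, 200 uM Amplex Red and HRP were added.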

[2] = target: T2, recombinant human DAO (diamine oxidase) (Homo sapiens, UniProt P19801); assay: Activity evaluation on recombinant human DAO (Amplex Red/HRP-coupled assay, 1 mM putrescine substrate); settings: read-out: Inhibitory Activity (IC50, nM) DAO
T2 construct: purchased R&D systems
T2 sequence (P19801 20-751): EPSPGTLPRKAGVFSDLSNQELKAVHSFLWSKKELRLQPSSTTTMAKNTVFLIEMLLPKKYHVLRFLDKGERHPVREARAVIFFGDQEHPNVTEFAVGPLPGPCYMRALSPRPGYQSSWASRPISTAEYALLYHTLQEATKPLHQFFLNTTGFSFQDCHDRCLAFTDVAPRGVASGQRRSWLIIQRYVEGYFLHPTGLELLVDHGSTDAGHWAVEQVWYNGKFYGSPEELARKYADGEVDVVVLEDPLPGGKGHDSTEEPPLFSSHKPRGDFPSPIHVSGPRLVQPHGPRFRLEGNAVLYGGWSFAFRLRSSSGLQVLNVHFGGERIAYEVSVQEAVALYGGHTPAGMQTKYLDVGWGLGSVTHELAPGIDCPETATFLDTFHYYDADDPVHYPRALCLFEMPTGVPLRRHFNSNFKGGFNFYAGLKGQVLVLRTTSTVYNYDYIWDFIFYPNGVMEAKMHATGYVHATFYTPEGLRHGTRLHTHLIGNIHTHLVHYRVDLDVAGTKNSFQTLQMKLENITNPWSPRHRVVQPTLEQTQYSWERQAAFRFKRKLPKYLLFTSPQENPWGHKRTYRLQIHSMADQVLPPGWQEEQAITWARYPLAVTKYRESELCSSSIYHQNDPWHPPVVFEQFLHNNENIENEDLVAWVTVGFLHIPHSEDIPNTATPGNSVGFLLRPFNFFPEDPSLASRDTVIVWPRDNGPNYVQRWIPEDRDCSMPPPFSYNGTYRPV
Outline: as §1

[3] = target: T3, recombinant human MAO-B (monoamine oxidase-B) (Homo sapiens, UniProt P27338); assay: Activity evaluation on recombinant human MAO-B (Amplex Red/HRP-coupled assay, 1 mM benzylamine substrate); settings: read-out: Inhibitory Activity (IC50, nM) MAO-B
T3 construct: purchased Sigma-Aldrich
T3 sequence (P27338 1-520): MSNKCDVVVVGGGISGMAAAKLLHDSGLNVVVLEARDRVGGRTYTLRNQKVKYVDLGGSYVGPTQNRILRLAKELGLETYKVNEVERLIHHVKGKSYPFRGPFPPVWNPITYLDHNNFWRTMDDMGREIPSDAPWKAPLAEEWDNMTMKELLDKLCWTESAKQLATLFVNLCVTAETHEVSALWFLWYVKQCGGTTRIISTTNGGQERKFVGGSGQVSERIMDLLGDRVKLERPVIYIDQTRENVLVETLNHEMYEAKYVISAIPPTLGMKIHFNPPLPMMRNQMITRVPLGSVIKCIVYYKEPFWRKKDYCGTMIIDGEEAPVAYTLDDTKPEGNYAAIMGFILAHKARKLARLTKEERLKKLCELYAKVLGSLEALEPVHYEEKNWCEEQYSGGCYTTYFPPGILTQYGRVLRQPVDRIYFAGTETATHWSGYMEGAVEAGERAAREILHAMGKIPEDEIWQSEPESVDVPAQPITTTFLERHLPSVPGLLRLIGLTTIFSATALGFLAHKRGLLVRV
Outline: as §1

recombinant human VAP-1 = target: T4, recombinant human VAP-1 (Homo sapiens, UniProt Q16853); assay: Activity evaluation on recombinant human VAP-1 (Amplex Red/HRP-coupled hydrogen peroxide assay, benzylamine substrate); settings: read-out: Inhibitory Activity (IC50, nM) human VAP-1
T4 construct: purchased R&D systems
T4 sequence (Q16853 1-763): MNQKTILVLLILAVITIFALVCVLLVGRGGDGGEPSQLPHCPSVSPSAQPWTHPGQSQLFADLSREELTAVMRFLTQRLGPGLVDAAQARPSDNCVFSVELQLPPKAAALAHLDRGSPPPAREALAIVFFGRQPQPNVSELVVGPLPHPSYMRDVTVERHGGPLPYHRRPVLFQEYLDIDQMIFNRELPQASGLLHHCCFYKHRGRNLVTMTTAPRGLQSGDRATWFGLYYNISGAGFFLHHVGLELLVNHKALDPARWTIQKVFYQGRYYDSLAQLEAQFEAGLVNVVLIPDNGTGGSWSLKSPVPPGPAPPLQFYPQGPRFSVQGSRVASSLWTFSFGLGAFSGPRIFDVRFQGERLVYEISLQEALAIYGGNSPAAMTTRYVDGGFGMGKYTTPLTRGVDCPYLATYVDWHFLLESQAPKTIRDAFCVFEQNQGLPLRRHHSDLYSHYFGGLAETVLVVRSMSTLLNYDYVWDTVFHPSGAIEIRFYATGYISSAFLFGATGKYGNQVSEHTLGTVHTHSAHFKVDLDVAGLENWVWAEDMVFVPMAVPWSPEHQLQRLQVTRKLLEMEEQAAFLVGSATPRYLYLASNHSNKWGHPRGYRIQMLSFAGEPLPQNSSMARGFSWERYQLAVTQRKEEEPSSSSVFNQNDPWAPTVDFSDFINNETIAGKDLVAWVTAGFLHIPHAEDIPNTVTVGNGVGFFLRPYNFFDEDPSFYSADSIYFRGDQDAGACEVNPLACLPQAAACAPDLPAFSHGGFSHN
Outline: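 Hydrogen peroxide from benzylamine (1 mM) oxidation by human recombinant VAP-1 detected via HRP-coupled Amplex Red (200 uM) fluorescence, kinetic over 1–2 h. Enzyme and compound preincubated 30 min at 37 °C, pH 7.4 phosphate; 8-point dose response, signal-rate decrease versus DMSO control fitted to four-parameter logistic for IC50.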

[4] = recombinant human VAP-1, benzylamine substrate
[5] = recombinant human VAP-1, 30 min preincubation at 37° C., 1 mM benzylamine

SMILES	IC50 ([1]; 0.5 mM tyramine substrate) [nM]	IC50 ([2]; 1 mM putrescine substrate) [nM]	IC50 ([3]; 1 mM benzylamine substrate) [nM]	IC50 (recombinant human VAP-1; [4]) [nM]	IC50 ([1]; 0.5 mM tyramine) [nM]	IC50 ([2]; 1 mM putrescine) [nM]	IC50 ([3]; 1 mM benzylamine) [nM]	IC50 (recombinant human VAP-1; [5]) [nM]
Cc1cc(-c2cccc(-c3nc[nH]n3)c2)cnc1-n1cnn(CC(CN)=C(F)F)c1=O [Example 239, 2-[2-(aminomethyl)-3,3-difluoro-allyl]-4-[3-methyl-5-[3-(1H-1,2,4-triazol-3-yl)phenyl]-2-pyridyl]-1,2,4-triazol-3-one trifluoroacetate]	> 100000	11000	14000	2.7				
NCC(Cn1ncn(-c2cccc(-c3ccc(N4CCNCC4)cc3)n2)c1=O)=C(F)F [Example 47, 2-[2-(aminomethyl)-3,3-difluoro-allyl]-4-[6-(4-piperazin-1-ylphenyl)-2-pyridyl]-1,2,4-triazol-3-one Ditrifluoroacetate]					> 100000	1900	> 100000	3.5
Cc1cc(-c2ccc3c(c2)CCC(=O)N3C)cnc1-n1cnn(CC(CN)=C(F)F)c1=O [Example 74, 6-[6-[1-[2-(aminomethyl)-3,3-difluoro-allyl]-5-oxo-1,2,4-triazol-4-yl]-5-methyl-3-pyridyl]-1-methyl-3,4-dihydroquinolin-2-one Trifluoroacetate]					> 100000	6500	7500	0.3
Cc1cc(-c2ccc3cn[nH]c3c2)cnc1-n1cnn(CC(CN)=C(F)F)c1=O [Example 233, 2-[2-(aminomethyl)-3,3-difluoro-allyl]-4-[5-(1H-indazol-6-yl)-3-methyl-2-pyridyl]-1,2,4-triazol-3-one Trifluoroacetate]	> 100000	36000	200	0.2				
NCC(Cn1ncn(-c2ccc(Br)cc2F)c1=O)=C(F)F [Example 5, 2-[2-(aminomethyl)-3,3-difluoro-allyl]-4-(4-bromo-2-fluoro-phenyl)-1,2,4-triazol-3-one Trifluoroacetate]					> 100000	67000	4900	2.5
NCC(Cn1ncn(Cc2ccc(-c3ccc(N4CCNCC4)cc3)s2)c1=O)=C(F)F [Example 106, 2-[2-(aminomethyl)-3,3-difluoro-allyl]-4-[[5-(4-piperazin-1-ylphenyl)-2-thienyl]methyl]-1,2,4-triazol-3-one Ditrifluoroacetate]					> 100000	860	> 100000	4.7
Cc1cc(-c2ccc(S(C)(=O)=O)cc2)sc1Cn1cnn(CC(CN)=C(F)F)c1=O [Example 154, 2-[2-(aminomethyl)-3,3-difluoro-allyl]-4-[[3-methyl-5-(4-methylsulfonylphenyl)-2-thienyl]methyl]-1,2,4-triazol-3-one Trifluoroacetate]					> 100000	21000	> 100000	4
CN1C(=O)CCc2cc(-c3ccc(Cn4cnn(CC(CN)=C(F)F)c4=O)s3)ccc21 [Example 138, 6-[5-[[1-[2-(aminomethyl)-3,3-difluoro-allyl]-5-oxo-1,2,4-triazol-4-yl]methyl]-2-thienyl]-1-methyl-3,4-dihydroquinolin-2-one Trifluoroacetate]					> 100000	13000	15000	0.1
CCn1cc(-c2ccc(-n3cnn(CC(CN)=C(F)F)c3=O)cc2F)cn1 [Example 30, 2-[2-(aminomethyl)-3,3-difluoro-allyl]-4-[4-(1-ethylpyrazol-4-yl)-3-fluoro-phenyl]-1,2,4-triazol-3-one Trifluoroacetate]					> 100000	890	300	0.6
CS(=O)(=O)c1ccc(-c2ccc(CCn3cnn(CC(CN)=C(F)F)c3=O)s2)cc1 [Example 173, 2-[2-(aminomethyl)-3,3-difluoro-allyl]-4-[2-[5-(4-methylsulfonylphenyl)-2-thienyl]ethyl]-1,2,4-triazol-3-one trifluoroacetate]					> 100000	260	69000	0.3
Cc1cc(-c2ccc(C(F)(F)F)nc2)sc1Cn1cnn(CC(CN)=C(F)F)c1=O [Example 156, 2-[2-(aminomethyl)-3,3-difluoro-allyl]-4-[[3-methyl-5-[6-(trifluoromethyl)-3-pyridyl]-2-thienyl]methyl]-1,2,4-triazol-3-one Trifluoroacetate]					> 100000	9100	17000	3.2
Cn1cc(-c2ccc(Cn3cnn(CC(CN)=C(F)F)c3=O)s2)cn1 [Example 296, 2-[2-(aminomethyl)-3,3-difluoro-allyl]-4-[[5-(1-methylpyrazol-4-yl)-2-thienyl]methyl]-1,2,4-triazol-3-one Trifluoroacetate]	> 100000	> 100000	> 100000	1				
CN1CCOc2cc(-c3ccc(Cn4cnn(CC(CN)=C(F)F)c4=O)s3)ccc21 [Example 140, 2-[2-(aminomethyl)-3,3-difluoro-allyl]-4-[[5-(4-methyl-2,3-dihydro-1,4-benzoxazin-7-yl)-2-thienyl]methyl]-1,2,4-triazol-3-one Trifluoroacetate]					6600	6800	8000	0.8

From patent publication US11168073B2, “3,3-difluoroallylamines or salts thereof and pharmaceutical compositions comprising the same” (YUHAN CORPORATION, priority 2018, dated 2021)
